Measurements published in the supplement of paper PMC11061612.

How the values were obtained:
[1] = system: NOMO-1 (Acute Myeloid Leukemia); test: Bliss excess, mean over the matrix (fraction); higher = more synergy
In short: (§1)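 After 24 hours at 37°C and 5% CO2 in 1536-well plates, cells in DMEM/F12 or RPMI plus 10% FBS received two-drug dose matrices for 72 hours. Viability came from CellTiter-Glo 2.0 luminescence and was scaled as inhibition, anchored at 0 by vehicle wells and at 1 by blank wells. Combination Emax is taken as the second-highest inhibition in the matrix, and Bliss excess as the observed combination effect less EA + EB − EA·EB, with EA and EB the single-agent effects.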

[2] = system: KG-1 (Acute Myeloid Leukemia); test: as above
In short: as §1

[3] = system: RCC10RGB (Kidney Carcinoma); test: as above
In short: as §1

[4] = system: 647-V (Bladder Carcinoma); test: as above
In short: as §1

[5] = system: SNU-61 (Colorectal Carcinoma); test: as above
In short: as §1

[6] = system: NCI-H1688 (Small Cell Lung Carcinoma); test: as above
In short: as §1

[7] = system: BICR78 (Oral Cavity Carcinoma); test: combination Emax (second highest fraction inhibited in the dose matrix, 72 h); higher = more inhibition; extreme values may be limits of the assay
In short: as §1

[8] = system: P31-FUJ (Acute Myeloid Leukemia); test: as above
In short: as §1

MSTO-211H (Mesothelioma) = test: as above
In short: as §1

SK-MEL-1 (Melanoma) = test: as above
In short: as §1

[9] = system: EKVX (Non-Small Cell Lung Carcinoma); test: as above
In short: as §1

[10] = system: SW48 (Colorectal Carcinoma); test: as above
In short: as §1

[11] = system: EFM-192A (Breast Carcinoma); test: as above
In short: as §1

A172 (Glioblastoma) = test: as above
In short: as §1

EW-22 (Ewing's Sarcoma) = test: as above
In short: as §1

HCC38 (Breast Carcinoma) = test: as above
In short: as §1

[12] = system: WSU-DLCL2 (B-Cell Non-Hodgkin's Lymphoma); test: as above
In short: as §1

CS1 (Chondrosarcoma) = test: as above
In short: as §1

HuO9 (Osteosarcoma) = test: as above
In short: as §1

[13] = system: HCC-827 (Lung Adenocarcinoma); test: as above
In short: as §1
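Throughout, for Bliss excess, mean over the matrix: after 72 h of two-drug dosing.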

Row | Compound | Bliss excess [1] | Bliss excess [2] | Bliss excess [3] | Bliss excess [4] | Bliss excess [5] | Bliss excess [6] | combination Emax [7] | combination Emax [8] | combination Emax (MSTO-211H (Mesothelioma)) | combination Emax (SK-MEL-1 (Melanoma)) | combination Emax [9] | combination Emax [10] | combination Emax [11] | combination Emax (A172 (Glioblastoma)) | combination Emax (EW-22 (Ewing's Sarcoma)) | combination Emax (HCC38 (Breast Carcinoma)) | combination Emax [12] | combination Emax (CS1 (Chondrosarcoma)) | combination Emax (HuO9 (Osteosarcoma)) | combination Emax [13]
1 | CN(CCO)CC[C@H](CSc1ccccc1)Nc1ccc(S(=O)(=O)NC(=O)c2ccc(N3CCC([C@@H](O)c4ccccc4-c4ccc(Cl)cc4)CC3)cc2)cc1S(=O)(=O)C(F)(F)F [AZD4320] + C[C@@H]1COCCN1C2=NC(=NC(=C2)C3(CC3)[S@](=N)(=O)C)C4=C5C=CNC5=NC=C4 [AZD6738] (first compound max 1 µM, 7x7, partner max 10 µM) | 0.0303 | 0.0279 | -0.0734 | -0.0222 | -0.0406 | -0.0076 | 0.774 | 0.994 | 0.959 | 0.597 | 0.252 | 0.954 | 0.349 | 0.731 | 1 | 0.933 | 0.989 | 0.83 | 0.956 | 0.551
2 | CN(CCO)CC[C@H](CSc1ccccc1)Nc1ccc(S(=O)(=O)NC(=O)c2ccc(N3CCC([C@@H](O)c4ccccc4-c4ccc(Cl)cc4)CC3)cc2)cc1S(=O)(=O)C(F)(F)F [AZD4320] + C[C@@H](Nc1cc(F)cc(F)c1)c1cc(C(=O)N(C)C)cc2c(=O)cc(N3CCOCC3)oc12 [AZD8186] (first compound max 1 µM, 7x7, partner max 3 µM) | 0.0515 | 0.066 | -0.0652 | 0.0441 | 0.016 | 0.0259 | 0.446 | 0.543 | 0.751 | 0.722 | 0.308 | 0.914 | 0.345 | 0.327 | 1 | 0.884 | 0.978 | 0.839 | 0.953 | 0.393
3 | CN(CCO)CC[C@H](CSc1ccccc1)Nc1ccc(S(=O)(=O)NC(=O)c2ccc(N3CCC([C@@H](O)c4ccccc4-c4ccc(Cl)cc4)CC3)cc2)cc1S(=O)(=O)C(F)(F)F [AZD4320] + Cc1cc2ncnn2cc1Nc1ncc2c(n1)n(C1CCOCC1)c(=O)n2C [AZD7648] (first compound max 1 µM, 7x7, partner max 10 µM) | 0.0103 | 0.0526 | -0.077 | -0.0508 | -0.0254 | 0.0024 | 0.198 | 0.858 | 0.327 | 0.606 | 0.237 | 0.632 | 0.226 | 0.262 | 0.905 | 0.873 | 0.744 | 0.347 | 0.77 | 0.182
4 | CN(CCO)CC[C@H](CSc1ccccc1)Nc1ccc(S(=O)(=O)NC(=O)c2ccc(N3CCC([C@@H](O)c4ccccc4-c4ccc(Cl)cc4)CC3)cc2)cc1S(=O)(=O)C(F)(F)F [AZD4320] + Cn1cnc2c(F)c(Nc3ccc(Br)cc3Cl)c(C(=O)NOCCO)cc21 [Selumetinib] (first compound max 1 µM, 7x7, partner max 3 µM) | 0.143 | 0.0452 | -0.0159 | 0.0631 | 0.0604 | 0.0285 | 0.508 | 0.901 | 0.531 | 0.976 | 0.314 | 0.914 | 0.284 | 0.212 | 1 | 0.907 | 0.959 | 0.847 | 0.979 | 0.298
5 | Cc1c2c(nn1C)CSCc1cc(n(C)n1)CSc1cc(c3ccccc3c1)OCCCc1c(C(=O)O)n(C)c3c-2c(Cl)ccc13 [AZD5991] + C1CN(CCC1(C(=O)N[C@@H](CCO)C2=CC=C(C=C2)Cl)N)C3=NC=NC4=C3C=CN4 [Capivasertib] (first compound max 1 µM, 7x7, partner max 3 µM) | 0.0814 | -0.0164 | -0.0085 | -0.0059 | -0.0174 | 0.015 | 0.266 | 0.99 | 0.245 | 0.118 | 0.301 | 0.28 | 0.67 | 0.234 | 0.624 | 0.506 | 1 | 0.255 | 1 | 0.314
6 | Cc1c2c(nn1C)CSCc1cc(n(C)n1)CSc1cc(c3ccccc3c1)OCCCc1c(C(=O)O)n(C)c3c-2c(Cl)ccc13 [AZD5991] + C=CCn1c(=O)c2cnc(Nc3ccc(N4CCN(C)CC4)cc3)nc2n1-c1cccc(C(C)(C)O)n1 [AZD1775] (first compound max 1 µM, partner max 1 µM) | -0.01 | 0.0391 | -0.0182 | 0.059 | -0.0118 | -0.0502 | 0.381 | 0.99 | 0.596 | 0.402 | 0.316 | 0.402 | 0.71 | 0.609 | 0.789 | 0.657 | 1 | 0.563 | 1 | 0.401
7 | Cc1c2c(nn1C)CSCc1cc(n(C)n1)CSc1cc(c3ccccc3c1)OCCCc1c(C(=O)O)n(C)c3c-2c(Cl)ccc13 [AZD5991] + CC1(C)CCC(CN2CCN(c3ccc(C(=O)NS(=O)(=O)c4ccc(NCC5CCOCC5)c([N+](=O)[O-])c4)c(Oc4cnc5[nH]ccc5c4)c3)CC2)=C(c2ccc(Cl)cc2)C1 [Venetoclax] (first compound max 1 µM, 7x7, partner max 1 µM) | 0.256 | 0.119 | -0.0086 | -0.0271 | -0.0143 | 0.105 | 0.18 | 0.998 | 0.137 | 0.22 | 0.138 | 0.339 | 0.873 | 0.268 | 0.839 | 0.463 | 1 | 0.16 | 1 | 0.182
8 | Cc1c2c(nn1C)CSCc1cc(n(C)n1)CSc1cc(c3ccccc3c1)OCCCc1c(C(=O)O)n(C)c3c-2c(Cl)ccc13 [AZD5991] + CCN(CCO)CCCOc1ccc2c(Nc3cc(CC(=O)Nc4cccc(F)c4)[nH]n3)ncnc2c1 [AZD2811] (first compound max 1 µM, 7x7, partner max 1 µM) | 0.0894 | 0.032 | -0.0567 | 0.0896 | 0.0315 | 0.0059 | 0.304 | 0.994 | 0.443 | 0.312 | 0.226 | 0.984 | 0.699 | 0.474 | 0.88 | 0.521 | 1 | 0.315 | 0.991 | 0.245
9 | Cc1c2c(nn1C)CSCc1cc(n(C)n1)CSc1cc(c3ccccc3c1)OCCCc1c(C(=O)O)n(C)c3c-2c(Cl)ccc13 [AZD5991] + CN(C)CCCOc1ccc(-c2ccc3ncc4c(c3c2)n(C2CCOCC2)c(=O)n4C)cn1 [AZD0156] (first compound max 1 µM, 7x7, partner max 1 µM) | -0.0177 | 0.0115 | -0.0619 | 0.015 | -0.0047 | -0.0098 | 0.219 | 0.974 | 0.188 | 0.261 | 0.239 | 0.216 | 0.587 | 0.228 | 0.512 | 0.365 | 1 | 0.235 | 1 | 0.345
10 | Cc1c2c(nn1C)CSCc1cc(n(C)n1)CSc1cc(c3ccccc3c1)OCCCc1c(C(=O)O)n(C)c3c-2c(Cl)ccc13 [AZD5991] + C[C@@H]1COCCN1C2=NC(=NC(=C2)C3(CC3)[S@](=N)(=O)C)C4=C5C=CNC5=NC=C4 [AZD6738] (first compound max 1 µM, 7x7, partner max 10 µM) | -0.0006 | 0.0155 | 0.0332 | 0.0802 | 0.0435 | 0.0406 | 0.612 | 0.998 | 0.688 | 0.226 | 0.29 | 0.739 | 0.735 | 0.679 | 0.921 | 0.688 | 1 | 0.591 | 1 | 0.426
11 | Cc1c2c(nn1C)CSCc1cc(n(C)n1)CSc1cc(c3ccccc3c1)OCCCc1c(C(=O)O)n(C)c3c-2c(Cl)ccc13 [AZD5991] + C[C@@H](Nc1cc(F)cc(F)c1)c1cc(C(=O)N(C)C)cc2c(=O)cc(N3CCOCC3)oc12 [AZD8186] (first compound max 1 µM, 7x7, partner max 3 µM) | 0.0361 | 0.0031 | -0.0349 | 0.0458 | -0.0277 | 0.0171 | 0.189 | 0.959 | 0.313 | 0.153 | 0.29 | 0.387 | 0.703 | 0.304 | 0.491 | 0.396 | 1 | 0.235 | 1 | 0.288
12 | Cc1c2c(nn1C)CSCc1cc(n(C)n1)CSc1cc(c3ccccc3c1)OCCCc1c(C(=O)O)n(C)c3c-2c(Cl)ccc13 [AZD5991] + Cc1cc2ncnn2cc1Nc1ncc2c(n1)n(C1CCOCC1)c(=O)n2C [AZD7648] (first compound max 1 µM, 7x7, partner max 10 µM) | 0.0486 | -0.0136 | 0.0033 | 0.0281 | -0.0446 | -0.0093 | 0.219 | 0.965 | 0.194 | 0.303 | 0.303 | 0.33 | 0.692 | 0.322 | 0.504 | 0.335 | 1 | 0.207 | 1 | 0.288
